Test results reported in US6737383B1, “Herbicidal oxadiazolidines” (priority 1999, dated 2004).

Assays:
[1] = test system: bedstraw; assay: Test B pre/postemergence bedstraw; format: in vivo, Galium aparine; conditions: Postemergence, Rate 500 g/ha; scale of 0 to 10 where 0 is no effect and 10 is complete control
Method in brief: (§1)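 Response is a visual 0-to-10 score relative to untreated plants, where 0 means no effect and 10 means complete control, taken twelve to sixteen days after application. Treatments went onto soil at planting and onto foliage of 1- to 4-leaf plants, using a surfactant-containing non-phytotoxic solvent.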

[2] = test system: blackgrass; assay: Test B pre/postemergence blackgrass; format: in vivo, Alopecurus myosuroides
Method in brief: as §1

[3] = test system: surinam grass; assay: Test B pre/postemergence surinam grass; format: in vivo, Brachiaria decumbens
Method in brief: as §1

[4] = test system: cocklebur; assay: Test B pre/postemergence cocklebur; format: in vivo, Xanthium strumarium
Method in brief: as §1

[5] = test system: corn; assay: Test B pre/postemergence corn; format: in vivo, Zea mays
Method in brief: as §1

[6] = test system: morningglory; assay: Test B pre/postemergence morningglory; format: in vivo, Ipomoea hederacea
Method in brief: as §1

[7] = test system: pigweed; assay: Test B pre/postemergence pigweed; format: in vivo, Amaranthus retroflexus
Method in brief: as §1

[8] = test system: rape; assay: Test B pre/postemergence rape; format: in vivo, Brassica napus
Method in brief: as §1

[9] = test system: soybean; assay: Test B pre/postemergence soybean; format: in vivo, Glycine max
Method in brief: as §1

[10] = test system: sugar beet; assay: Test B pre/postemergence sugar beet; format: in vivo, Beta vulgaris
Method in brief: as §1

[11] = test system: velvetleaf; assay: Test B pre/postemergence velvetleaf; format: in vivo, Abutilon theophrasti
Method in brief: as §1

[12] = test system: wild oat; assay: Test B pre/postemergence wild oat; format: in vivo, Avena fatua
Method in brief: as §1

[13] = test system: purple nutsedge; assay: Test B pre/postemergence purple nutsedge; format: in vivo, Cyperus rotundus
Method in brief: as §1

[14] = test system: rice; assay: Test B flood test rice; format: in vivo, Oryza sativa; conditions: for Rice plant response rating: scale of 0 to 10 where 0 is no effect and 10 is complete control
Method in brief: (§2)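 Read-out is a visual response score from 0 (no effect) to 10 (complete control), assigned by comparison with untreated controls. Treatment was applied at the 2-leaf stage, and plants stayed in the greenhouse for twelve to sixteen days before scoring.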

[15] = test system: smallflower flatsedge; assay: Test B flood test smallflower flatsedge; format: in vivo, Cyperus difformis; conditions: for S. Flatsedge plant response rating: scale of 0 to 10 where 0 is no effect and 10 is complete control
Method in brief: as §2

[16] = test system: bamyardgrass; assay: Test B flood test barnyardgrass; format: in vivo, Echinochloa crus-galli; conditions: for Plant response rating, Barnyardgrass: scale 0 to 10, 0 is no effect, 10 is complete control; for Barnyardgrass plant response rating: scale of 0 to 10 where 0 is no effect and 10 is complete control
Method in brief: as §2

[17] = Postemergence, Rate 125 g/ha, scale 0 to 10, 0 is no effect, 10 is complete control
[18] = Postemergence, Rate 250 g/ha, scale 0 to 10, 0 is no effect, 10 is complete control
[19] = Postemergence, Rate 500 g/ha, scale of 0 to 10 where 0 is no effect and 10 is complete control
[20] = Preemergence, Rate 62 g/ha, scale 0 to 10 (0 no effect, 10 complete control)
[21] = Preemergence, Rate 125 g/ha, scale of 0 to 10 where 0 is no effect and 10 is complete control
[22] = Preemergence, Rate 250 g/ha, scale of 0 to 10 where 0 is no effect and 10 is complete control
[23] = Preemergence, Rate 500 g/ha, scale 0 to 10, 0 is no effect, 10 is complete control
[24] = Rate 62 g/ha, Postemergence, scale of 0 to 10 where 0 is no effect and 10 is complete control
[25] = Preemergence, Rate 250 g/ha, scale 0 to 10, 0 is no effect, 10 is complete control
[26] = Postemergence section (flood test species), Rate 500 g/ha
[27] = Rate 62 g/ha, Postemergence (flood test species)
[28] = flood test species, listed under Postemergence, Rate 250 g/ha, scale 0 to 10, 0 is no effect, 10 is complete control

SMILES: CC(C)N(C(=O)n1oc(=O)n(CCCC(F)(F)F)c1=O)c1ccc(F)cc1 [Compound 398]
- Bedstraw plant response rating [1]: 9
- Plant response rating, Blackgrass [2, 17]: 6
- Plant response rating, Blackgrass [2, 18]: 9
- Blackgrass plant response rating [2, 19]: 9
- Plant response rating, Blackgrass [2, 20]: 3
- Plant response rating, Blackgrass [2, 21]: 8
- Blackgrass plant response rating [2, 22]: 8
- Blackgrass plant response rating [2, 23]: 10
- Blackgrass plant response rating [2, 24]: 0
- Plant response rating, B. signalgrass [3, 17]: 0
- Plant response rating, B. signalgrass [3, 18]: 2
- B. signalgrass plant response rating [3, 19]: 8
- Plant response rating, B. signalgrass [3, 20]: 0
- Plant response rating, B. signalgrass [3, 21]: 2
- B. signalgrass plant response rating [3, 22]: 6
- B. signalgrass plant response rating ([3]; Preemergence, Rate 500 g/ha, scale of 0 to 10 where 0 is no effect and 10 is complete control): 10
- B. signalgrass plant response rating [3, 24]: 0
- Plant response rating, Cocklebur [4, 17]: 0
- Plant response rating, Cocklebur [4, 18]: 0
- Cocklebur plant response rating [4, 19]: 0
- Plant response rating, Cocklebur [4, 20]: 0
- Plant response rating, Cocklebur [4, 21]: 0
- Cocklebur plant response rating [4, 25]: 0
- Cocklebur plant response rating [4, 23]: 0
- Cocklebur plant response rating [4, 24]: 0
- Plant response rating, Corn [5, 17]: 0
- Plant response rating, Corn [5, 18]: 0
- Corn plant response rating [5, 19]: 0
- Plant response rating, Corn [5, 20]: 0
- Plant response rating, Corn [5, 21]: 0
- Corn plant response rating [5, 25]: 0
- Corn plant response rating [5, 23]: 8
- Corn plant response rating [5, 24]: 0
- Plant response rating, Morningglory [6, 18]: 3
- Morningglory plant response rating [6, 19]: 8
- Plant response rating, Morningglory [6, 20]: 0
- Plant response rating, Morningglory [6, 21]: 0
- Morningglory plant response rating [6, 25]: 0
- Morningglory plant response rating [6, 23]: 0
- Morningglory plant response rating [6, 24]: 2
- Plant response rating, Redroot pigweed [7, 18]: 3
- Redroot pigweed plant response rating [7, 19]: 5
- Plant response rating, Redroot pigweed [7, 20]: 2
- Plant response rating, Redroot pigweed [7, 21]: 5
- Redroot pigweed plant response rating [7, 25]: 10
- Redroot pigweed plant response rating [7, 23]: 10
- Redroot pigweed plant response rating [7, 24]: 0
- Plant response rating, Rape [8, 18]: 2
- Rape plant response rating [8, 19]: 2
- Plant response rating, Rape [8, 20]: 0
- Plant response rating, Rape [8, 21]: 3
- Rape plant response rating [8, 25]: 8
- Rape plant response rating [8, 23]: 10
- Rape plant response rating [8, 24]: 0
- Plant response rating, Soybean [9, 18]: 4
- Soybean plant response rating [9, 19]: 6
- Plant response rating, Soybean [9, 20]: 0
- Plant response rating, Soybean [9, 21]: 0
- Soybean plant response rating [9, 25]: 0
- Soybean plant response rating [9, 23]: 0
- Soybean plant response rating [9, 24]: 3
- Plant response rating, Sugarbeets [10, 18]: 0
- Sugarbeets plant response rating [10, 19]: 0
- Plant response rating, Sugarbeets [10, 20]: 0
- Plant response rating, Sugarbeets [10, 21]: 4
- Sugarbeets plant response rating [10, 25]: 4
- Sugarbeets plant response rating [10, 23]: 9
- Sugarbeets plant response rating [10, 24]: 0
- Plant response rating, Velvetleaf [11, 18]: 0
- Velvetleaf plant response rating [11, 19]: 5
- Plant response rating, Velvetleaf [11, 20]: 0
- Plant response rating, Velvetleaf [11, 21]: 2
- Velvetleaf plant response rating [11, 25]: 6
- Velvetleaf plant response rating [11, 23]: 7
- Velvetleaf plant response rating [11, 24]: 0
- Wild oats plant response rating [12, 19]: 0
- Plant response rating, Wild oats [12, 20]: 0
- Plant response rating, Wild oats [12, 21]: 3
- Wild oats plant response rating [12, 25]: 3
- Wild oats plant response rating [12, 23]: 8
- Wild oats plant response rating [12, 24]: 0
- Plant response rating, Nutsedge [13, 18]: 0
- Nutsedge plant response rating [13, 19]: 0
- Plant response rating, Nutsedge [13, 20]: 0
- Plant response rating, Nutsedge [13, 21]: 0
- Nutsedge plant response rating [13, 25]: 0
- Nutsedge plant response rating [13, 23]: 0
- Nutsedge plant response rating [13, 24]: 0
- Rice plant response rating [14, 26]: 0
- Rice plant response rating [14, 27]: 0
- Plant response rating, Rice [14, 28]: 0
- S. Flatsedge plant response rating [15, 26]: 0
- S. Flatsedge plant response rating [15, 27]: 0
- Plant response rating, S. Flatsedge [15, 28]: 0
- Plant response rating, Barnyardgrass ([16]; Postemergence (flood test), Rate 125 g/ha): 0
- Barnyardgrass plant response rating [16, 26]: 0
- Barnyardgrass plant response rating [16, 27]: 0
- Plant response rating, Barnyardgrass ([16]; flood test species, listed under Postemergence, Rate 250 g/ha): 0
